Source: article PMC8231556, “Inhibiting Endothelial Cell Function in Normal and Tumor Angiogenesis Using BMP Type I Receptor Macrocyclic Kinase Inhibitors” (Cancers, 2021)

Assays:
[1] = system: Tg (fli:EGFP) zebrafish embryos; assay: Zebrafish subintestinal vessel (SIV) formation; format: in vivo; conditions: 0.5 µM, 3 days
Procedure: The Tg (fli:EGFP) zebrafish embryos were collected, and embryos with the same development stage (around 2.5 hpf) were selected. Groups containing at least 25 embryos were treated with the indicated compounds at 0.5 µM for 3 days. The egg water was refreshed every day, and the abnormal embryos were removed. After 3 days of treatment, the zebrafish embryos were fixed in 4% PFA for 2 h at room temperature and stored at 4 °C in PBS. The area containing SIV in each zebrafish embryo was scanned with an Andor Dragonfly 500 spinning disk confocal by using a 488 nm laser. At least ten zebrafish embryos in each group were randomly selected and analyzed. The SIV vasculature of the zebrafish was quantified with ImageJ. The leading buds were counted as previously described. The experiments were repeated twice with similar results.

[2] = system: HUVECs; assay: Chemotactic invasion assay; format: cell-based, human; conditions: 0.5 µM, towards full medium with 20% FBS
Procedure: The invasion potential of ECs was investigated using the chemotactic invasion assay, according to the IncuCyte instruction manual. Briefly, the top layer of an IncuCyte ClearView 96-well chemotaxis plate (4582, Essen Bioscience) was coated with 1% gelatin for 30 min. One thousand five hundred HUVEC cells/well were seeded on the gelatin-coated top plate and covered with 60 µL M199 medium with 1% FBS containing 0.5 µM of the indicated compounds or vehicle control (DMSO). Then 200 µL/well of M199 supplemented with 20% FBS, 100 IU/mL penicillin/streptomycin, 0.01 IU/mL Heparine, and BPE with 0.5 µM of the indicated compounds was added to the bottom plate. The plate was placed in the IncuCyte, and whole well images of both top and bottom membranes were captured every 4 h for one day using the IncuCyte Chemotaxis imaging protocol. Finally, the top and bottom cell areas were quantified with the instrument’s software using automated algorithms. The ECs invasive behavior was presented as total bottom cell area normalized to the initial top cell area. All the experiments were repeated at least three times, and representative results are shown.

[3] = system: EA.hy926 cells; assay: Scratch wound migration assay; format: cell-based, human; conditions: 0.5 µM, 24 h; for effect on FBS-induced EC migration: 1% FBS; for effect on BMP9-induced EC migration: BMP9 1 ng/mL; for effect on VEGF-induced EC migration: VEGF 15 ng/mL
Procedure: Approximately 5 × 10^4 EA.hy926 cells/well were seeded in a 96-well microplate Essen ImageLock™ (4379, Essen Bioscience, Ann Arbor, MI, USA) and cultured overnight. Then homogeneous 700–800 micron-wide scratch wounds were made using a WoundMaker™ device (4563, Essen Bioscience, Ann Arbor, MI, USA) containing 96 pins. The compounds and/or ligands were added to each well in 100 µL of fresh serum-free medium. Each group contained 6 replicates. Real-time pictures were acquired every 4 h by the IncuCyte ZOOM (Essen Bioscience) to track the wound closure. The wound density was analyzed using the software package provided by the manufacturer and normalized to the wound width at the start of the experiment. All the experiments were repeated at least three times, and representative results are shown.

[4] = system: constitutively active ALK1 (caALK1); assay: caALK1-induced BRE-Luc reporter activity in C2C12 cells; format: cell-based; conditions: for inhibition of caALK1 compared to caALK2 (BRE-Luc): C2C12 cells
Description: To further investigate and validate the selective inhibitory effects of OD16 and OD29 toward BMP9/ALK1 and BMP6/ALK2 signaling, we transfected C2C12 myoblast cells with constitutively active mutant ALK1 and ALK2 (caALK1 and caALK2). These constitutively active receptors signal in the absence of exogenous ligands and allow for a more direct assessment of inhibitory effects that are elicited by kinase receptor inhibitors. […]
Figure S4. OD29 and OD16 are two small molecule BMP type I receptors kinase inhibitors in C2C12 cells. Effects of vehicle control (DMSO), LDN−193189, OD16 or OD29 on BRE transcriptional luciferase reporter activity induced by the ectopic expression of caALK1 (A) or caALK2 (B) in C2C12 cells. Cells were incubated with the inhibitors in three different con-centrations (0.1 μM, 0.5 μM or 1 μM) for 16 hours. Representative results from three biologically independent experiments are shown as mean ± SD. NS, not significant; * p < 0.05, ** p < 0.005; *** p < 0.001.

[5] = target: TGFBR2 (Homo sapiens, UniProt P37173); assay: radiometric protein kinase assay, affinity (Kd); format: binding
Chain of TGFBR2 (P37173 23-567): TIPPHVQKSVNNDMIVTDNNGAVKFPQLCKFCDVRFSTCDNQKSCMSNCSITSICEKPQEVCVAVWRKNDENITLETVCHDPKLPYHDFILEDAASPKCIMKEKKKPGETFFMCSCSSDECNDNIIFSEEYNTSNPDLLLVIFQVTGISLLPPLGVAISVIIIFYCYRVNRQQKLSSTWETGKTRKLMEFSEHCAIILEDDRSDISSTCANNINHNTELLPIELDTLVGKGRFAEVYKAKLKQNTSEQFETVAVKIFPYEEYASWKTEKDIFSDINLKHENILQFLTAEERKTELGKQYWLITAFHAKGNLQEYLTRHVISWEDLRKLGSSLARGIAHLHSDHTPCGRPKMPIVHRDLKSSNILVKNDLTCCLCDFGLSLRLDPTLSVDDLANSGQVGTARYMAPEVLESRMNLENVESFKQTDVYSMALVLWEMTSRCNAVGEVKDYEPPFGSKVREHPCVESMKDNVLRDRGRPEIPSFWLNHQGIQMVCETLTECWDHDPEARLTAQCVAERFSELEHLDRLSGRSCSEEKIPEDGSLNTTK
Procedure: The binding interaction profile of the compounds for ALK1–6, ACVR2A, ACVR2B, and TGFβR2 was determined by using radiometric protein kinase assay. For each compound, ten different concentrations (from 3 × 10^−6 M to 9 × 10^−11 M) were used in the protein kinase reaction.

[6] = system: TGF-β2-induced SMAD2 phosphorylation; assay: Western blot of TGF-β2-induced SMAD2 phosphorylation in EA.hy926 cells; format: cell-based, human; conditions: TGF-β2 1 ng/mL
Procedure: EA.hy926 cells or HUVECs were seeded in 6-well plates and starved in a serum-free medium for 4 h after reaching 80% confluence. The compounds were added 30 min prior to stimulation with the corresponding ligands. EA.hy926 cells were incubated with BMP9 (1 ng/mL), BMP6 (50 ng/mL), TGF-β2 (1 ng/mL), or vehicle control for 1 h. For HUVECs, after 4 h starvation, the cells were pre-treated with or without the indicated compounds for 30 min and subsequently stimulated with VEGF (40 ng/mL) for 10 min. The cells were harvested and lysed in radioimmunoprecipitation assay (RIPA) lysis buffer containing 1× complete protease inhibitor cocktail (11836153001, Roche, Basel, Switzerland). The protein concentration was determined using the DC protein assay kit (5000111, Bio-Rad). After adding loading buffer, the samples were boiled and proteins separated by sodium dodecyl sulfate polyacrylamide gel electrophoresis (SDS-PAGE). Proteins in the gel were transferred to polyvinylidene difluoride (PVDF) membranes (IPVH00010, Merck Millipore, Burlington, MA, USA) and immunoblotted with 1000 times diluted primary antibodies: phospho-SMAD1/5 (9516 S, Cell Signaling Technology, Leiden, The Netherlands), phospho-SMAD2 (pSMAD2, home-made), SMAD1 (6944 S, Cell Signaling Technology), SMAD2 (3103 S, Cell Signaling Technology), phospho-extracellular signal-regulated kinase/mitogen-activated protein kinase (pERK/MAPK, 4370, Cell Signaling Technology), mitogen-activated protein kinase/ERK1/2 (ERK1/2/MAPK, 9102 S, Cell Signaling Techonol), VEGFR (2479, Cell Signaling), pVEGFR (2478, Cell Signaling Technology), α/β-Tubulin (2148, Cell Signaling Technology), glyceraldehyde 3-phosphate dehydrogenase (GAPDH, MAB374, Merck Millipore). Clarity™ enhanced chemiluminescence (ECL) reagent (1705060, Bio-Rad) was used to visualize secondary antibodies conjugated to horseradish peroxidase (HRP). GAPDH or Tubulin was used as protein loading controls. […] The protein bands were quantified using ImageJ (National Institutes of Health, Bethesda, MD, USA).

SMILES | effect on SIV vessel length [1] | effect on HUVEC chemotactic invasion [2] | effect on number of SIV tip cells (leading buds) [1] | effect on FBS-induced EC migration [3] | effect on BMP9-induced EC migration [3] | effect on VEGF-induced EC migration [3] | inhibition of caALK1 compared to caALK2 (BRE-Luc) [4] | effect on caALK1-induced BRE-Luc reporter activity ([4]; C2C12 cells, 0.1, 0.5 or 1 μM, 16 hours) | Kd [5] [nM] | effect on TGF-β2-induced SMAD2 phosphorylation ([6]; 0.1 µM compound) | effect on TGF-β2-induced SMAD2 phosphorylation ([6]; dose range)
CNC(=O)c1ccccc1Sc1ccc2c(/C=C/c3ccccn3)n[nH]c2c1 [Axitinib, reference compound] | markedly inhibited | significantly compromised | – | – | – | – | – | – | – | – | –
c1ccc2c(-c3cnn4cc(-c5ccc(N6CCNCC6)cc5)cnc34)ccnc2c1 [LDN-193189, reference compound] | resulted in a lack of SIV vessels | significantly compromised | significantly increased | did not affect | significantly inhibited | no inhibitory effect | No difference in inhibition between ALK1 and ALK2 | in a dose-dependent manner attenuated | 16 | effectively attenuated | –
CN1CCc2cccc(c2)Nc2nccc(n2)N2CCCc3cc(ccc32)C1 [OD16] | significantly inhibited | similarly blocked | did not influence | did not affect | significantly inhibited | antagonized | higher sensitivity and more inhibitory potential against caALK1 compared to caALK2 | – | 380 | – | in a dose-dependent manner but far less efficiently than LDN-193189
CN1CCC(=O)NCCNc2ccn3ncc(c3n2)-c2cccc(c2)C1 [OD29] | significantly inhibited | similarly blocked | did not influence | effective in suppressing | significantly inhibited | antagonized | higher sensitivity and more inhibitory potential against caALK1 compared to caALK2 | – | 76 | – | nearly no inhibitory effect
